For data set [1] the following is noted: cited from earlier work.
For data set [2] the following is noted: in vivo; cited from earlier work.
The conditions of data set [3]: capsules with granulate formulation, surfactants, cyclodextrin, Avicel PH 101 and Primojel (U.S. Pat. No. 5,646,131, example 4); cited from earlier work.
The nature of data set [4]: Drug dissolution test of extruded granules or pellets, paddles at 100 rpm, demineralized water, room temperature. It is filed as physicochemical. The conditions noted are these: paddles 100 rpm. The protocol:
The extruded granules were collected, sieved and further analysed for drug dissolution (data shown in FIGS. 1 and 2, formulations B and D). The dissolution test was performed at room temperature by using paddles rotating at 100 rpm, the dissolution medium being demineralized water.

On to `Cn1c(=O)c2[nH]cnc2n(C)c1=O` [theophylline], for which the water-solubility in data set [1] was 8000 µg/mL.

Take `CS(=O)(=O)c1ccc([C@@H](O)[C@@H](CF)NC(=O)C(Cl)Cl)cc1` [florfenicol, D-(threo)-1-p-methylsulfonyl phenyl-2-dichloroacetamido-3-fluoro-l-propanol]: in data set [2], the oral bioavailability entry is “good oral bioavailability”.

On to `CC(C)(C)c1ccc(C(O)CCCN2CCC(C(O)(c3ccccc3)c3ccccc3)CC2)cc1` (stereo not drawn) [terfenadine], for which the water-solubility entry in data set [1] is recorded as “less than 0.01 mg/ml”. Moreover, the “drug release within 45 minutes” value in data set [3] is on record as 90%.

For `COc1cc(Cc2cnc(N)nc2N)cc(OC)c1OC` [trimethoprim, 2,4-diamino-5-(3,4,5-trimethoxy-benzyl)pyrimidine], the “drug release after 30 minutes” value in data set [4] is 38%.

With `CC/C(=C(/CC)c1ccc(O)cc1)c1ccc(O)cc1` [diethylstilbestrol], in data set [1], the “solubility in water (in words)” value is recorded as “virtually insoluble in water”.

(Values after patent US8349366B2, “Immediate release pharmaceutical granule compositions and a continuous process for making them” (Universiteit Gent, priority 2002, dated 2013).)
